Values of other authors in EP3338772A1, “[…] COMPOSITIONS STABILIZED BY HYDROXYCARBOXYLIC ACIDS , THE PRODUCTION THEREOF AND HIGHLY CONCENTRATED MAGNESIUM COMPOSITIONS” (Merz Pharma GmbH & Co. KGaA, priority 2016, dated 2018).
Where two headings read alike, the source gives them in different places. One block for each substance: values may come before it.

What was measured:
[1] = water

- Löslichkeit (25 °C): 18,14 g(Mg^2+)kg^-1H2O
Substance: Trimagnesiumdicitrat*Nonahydrat (C12H10O14Mg3*9H2O)

- Löslichkeit (22 °C): 19,40 g(Mg^2+)kg^-1H2O
- maximale Magnesium-Konzentration (Raumtemperatur, without hydroxycarboxylic acid): 19,40 g(Mg^2+) kg^-1 (Wasser)
Substance: Trimagnesiumdicitrat*Tetradecanhydrat (C12H10O14Mg3*14H2O)

Substance: Calcium-Magnesium-Lactat-Citrat-Komplex
- Löslichkeit in Wasser, Calcium [1]: 900 mg/L
- Löslichkeit in Wasser, Magnesium [1]: 300 mg/L
